From paper PMC10301603, “Potent and Selective Benzothiazole-Based Antimitotics with Improved Water Solubility: Design, Synthesis, and Evaluation as Novel Anticancer Agents” (Pharmaceutics, 2023) come the findings set out here.

One may read the IC50 as the concentration needed to halve the response being measured. The term Solubility denotes the dissolved amount per volume that the medium holds. Low readings indicate little dissolved substance, high ones much dissolved substance. As usually defined, the solubility is the concentration that dissolves in the medium under given conditions. A high value points to a readily soluble substance.

Each structure is given as a SMILES string. Values after ≈ are worked out from the molar mass of the structure shown.

In one data set the test system is HepG2 cells. Briefly: Cell growth inhibition assay (MTT). Type of data set: cell-based, human. Put shortly: (§1)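 Following overnight (24 h) attachment, cultures received serial compound concentrations from 10^−10 to 10^−2 M and were incubated 72 h before MTT viability measurement. Where efflux-pump sensitivity was tested, IC50 was redetermined with 10 µM verapamil present.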

Another data set concerns LNCaP cells. The experiment in a line: Cell growth inhibition assay (MTT). The note with it: 72 h after drug exposure. In kind it is cell-based, human. In a few lines:
as §1

The test system of a further data set is U87MG cells. The experiment in a line: Cell growth inhibition assay (MTT). The following applies: for IC50: MTT, 72 h after drug exposure. In kind it is cell-based, human. In a few lines:
as §1

The next data set has as its system HT-29 cells. The experiment in a line: Cell growth inhibition assay (MTT). In kind it is cell-based, human. Put shortly: as §1
In another data set the test system is T98G cells. Briefly: Cell growth inhibition assay (MTT). The following applies: 72 h after drug exposure. Type of data set: cell-based, human. Put shortly:
(§2)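 Compounds active at a 10 µM single-point screen were titrated (10^−10 to 10^−2 M) on cells in DMEM/10% heat-inactivated FBS. After 72 h, MTT viability gave IC50 values; replicate counts were triplicate wells across three experiments.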

The subject of a further data set is MCF7 cells. The experiment in a line: Cell growth inhibition assay (MTT). In kind it is cell-based, human. The note with it: for IC50: MTT, 72 h after drug exposure. Put shortly: as §1
Another data set concerns HeLa cells. The experiment in a line: Cell growth inhibition assay (MTT). Type of data set: cell-based, human. The note with it: 72 h after drug exposure. In a few lines:
as §2

The subject of the next data set is PC-3 cells. The experiment in a line: Cell growth inhibition assay (MTT). Type of data set: cell-based, human. In a few lines:
as §2

The test system of a further data set is bovine brain tubulin. The experiment in a line: Tubulin polymerization inhibition (turbidimetry). Type of data set: biochemical. The following applies: for % TPI: compounds tested at 10 µM, with respect to the negative control; for IC50: concentration inhibiting 50% of microtubular protein polymerization in vitro, read-out: TPI IC50. In a few lines: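 Turbidimetric assay using calf-brain microtubular protein: polymerization started by a shift from 4 °C to 37 °C and followed by absorbance at 450 nm. Percent inhibition calculated against a ligand-free control; IC50 determined only for compounds giving >50% inhibition at 10 µM. Triplicates in two independent experiments using separate protein preparations.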

In the next data set the test system is GL261 cells. Briefly: Cell growth inhibition assay (MTT). Type of data set: cell-based, murine. Put shortly:
as §1

Another data set relates to HEK-293 cells. Briefly: Cell growth inhibition assay (MTT), non-tumorigenic cells. Type of data set: cell-based, human. The note with it: non-tumorigenic cell line. Put shortly: as §1
The nature of data set [1]: Aqueous solubility, shake-flask method. The note with it: shaking flask, buffered media at pH 7.0, mean of three. Type of data set: physicochemical. Put shortly: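 Concentration read by UV at maximum absorbance wavelength, interpolated on each compound's own calibration line, mean of three independent runs. Samples were suspensions of 5 mg in 500 µL pH 7.0 buffer, stirred at room temperature for 72 h and filtered before reading.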

Take `CCNC(=O)N(Cc1cccnc1)c1nc2ccc(OC)cc2s1` [Compound 8]: the IC50 came to 94 nM in the data set on HepG2 cells (72 h after drug exposure); 88 nM in the data set on LNCaP cells; 9 nM in the data set with U87MG cells; 208 nM with HT-29 cells (72 h after drug exposure); 52 nM with T98G cells; 34 nM with MCF7 cells. Further, the IC50 was 85 nM in the data set on HeLa cells; 161 nM with PC-3 cells (72 h after drug exposure); 2900 nM with bovine brain tubulin; 25 nM with GL261 cells (72 h after drug exposure); 7970 nM in the data set on HEK-293 cells (72 h after drug exposure). For the same molecule, the “selectivity index against U87MG” value with U87MG cells (HEK-293 versus U87MG) was roughly 900. Further, in the data set with bovine brain tubulin, the “% TPI” value is listed as 100%. Besides, the Solubility in data set [1] is 102 µg/mL (≈ 298 µM).
Turning to `COc1ccc2nc(N(C=O)Cc3cccnc3)sc2c1` [Compound 14, N-(6-methoxybenzo[d]thiazol-2-yl)-N-(pyridin-3-ylmethyl)formamide], the IC50 was found to be 83 nM with HepG2 cells (Homo sapiens, HepG2, 72 h after drug exposure); 93 nM in the data set on LNCaP cells (Homo sapiens, LNCaP); 37 nM in the data set on U87MG cells (Homo sapiens, U-87 MG); 322 nM with HT-29 cells (Homo sapiens, HT-29, 72 h after drug exposure); 75 nM with T98G cells (Homo sapiens, T98G); 15 nM with MCF7 cells (Homo sapiens, MCF7). The IC50 in the data set with HeLa cells (Homo sapiens, HeLa) was 107 nM; in the data set on PC-3 cells (Homo sapiens, PC-3, 72 h after drug exposure), 195 nM; with bovine brain tubulin, 4100 nM; in the data set with GL261 cells (Mus musculus, GL261, 72 h after drug exposure), 35 nM; in the data set on HEK-293 cells (Homo sapiens, HEK293, 72 h after drug exposure) it was 8220 nM. For the same molecule, the “selectivity index against MCF7” value in the data set on MCF7 cells (HEK-293 versus MCF7) is on record as roughly 500. For the same molecule, in the data set on bovine brain tubulin, the “% TPI” value is on record as 87%. The molecule further registered a solubility at 72 h in [1] (pH 7.0 buffer, pH 7, aqueous buffer, thermodynamic from solid) of 95 µg/mL (≈ 317 µM).
